Test results from the NIST ThermoML archive (doi:10.1021/je900428g).
Several values for one entry are separate records, joined by “and”; a condition that tells them apart may be missing. Equal values may be shown once.

Settings: Fluid (supercritical or subcritical phases), Spherical resonator

[Ar] [argon]
Settings	speed of sound
250 K, 53.7 kPa	294.48 m/s
250 K, 198 kPa	294.47 m/s
250 K, 329.4 kPa	294.47 m/s
250 K, 2365.8 kPa	294.8 m/s
250 K, 4652.9 kPa	296.36 m/s
250 K, 5823 kPa	297.76 m/s
250.16 K, 48.7 kPa	294.57 m/s
250.16 K, 48.8 kPa	294.58 m/s
250.16 K, 192 kPa	294.57 m/s
250.16 K, 309.1 kPa	294.57 m/s
250.16 K, 447.7 kPa	294.56 m/s and 294.57 m/s
250.16 K, 598.6 kPa	294.56 m/s and 294.57 m/s
250.16 K, 732.5 kPa	294.56 m/s and 294.58 m/s
250.16 K, 875.6 kPa	294.58 m/s
250.16 K, 1401.1 kPa	294.62 m/s and 294.65 m/s
260 K, 198.6 kPa	300.35 m/s
260 K, 327.3 kPa	300.37 m/s
260 K, 3507.5 kPa	301.95 m/s
260 K, 4624 kPa	303.04 m/s
260 K, 6602.3 kPa	305.84 m/s
270 K, 53.2 kPa	306.06 m/s
270 K, 200 kPa	306.11 m/s
270 K, 325.8 kPa	306.15 m/s
270 K, 467.2 kPa	306.2 m/s
270 K, 3521.8 kPa	308.29 m/s
270 K, 4675.9 kPa	309.59 m/s
270 K, 5775.2 kPa	311.12 m/s
275.1 K, 47.6 kPa	308.94 m/s
275.1 K, 206.8 kPa	309.01 m/s
275.1 K, 206.9 kPa	309.01 m/s
275.1 K, 384.3 kPa	309.09 m/s and 309.1 m/s
275.1 K, 547.4 kPa	309.17 m/s and 309.18 m/s
275.1 K, 591.7 kPa	309.2 m/s
275.1 K, 706.2 kPa	309.25 m/s and 309.26 m/s
275.1 K, 733.8 kPa	309.27 m/s and 309.28 m/s
275.1 K, 860.2 kPa	309.34 m/s and 309.33 m/s and 309.35 m/s
275.1 K, 860.3 kPa	309.35 m/s
275.1 K, 1389.2 kPa	309.65 m/s
275.1 K, 1389.3 kPa	309.67 m/s
280 K, 200.1 kPa	311.76 m/s
280 K, 328.3 kPa	311.83 m/s
280 K, 2342.8 kPa	313.26 m/s
280 K, 4647.9 kPa	315.83 m/s
280 K, 5767 kPa	317.48 m/s
280 K, 6610.3 kPa	318.94 m/s
280.12 K, 99.1 kPa	311.77 m/s
280.12 K, 305.2 kPa	311.87 m/s
280.12 K, 307.7 kPa	311.89 m/s
280.12 K, 529.4 kPa	312 m/s
280.12 K, 531.1 kPa	312.01 m/s
280.12 K, 745.8 kPa	312.13 m/s
280.12 K, 748 kPa	312.14 m/s
280.12 K, 962.4 kPa	312.27 m/s
280.12 K, 964.6 kPa	312.28 m/s
280.12 K, 1184.9 kPa	312.42 m/s
280.12 K, 1396.4 kPa	312.58 m/s
280.12 K, 1396.8 kPa	312.57 m/s
280.12 K, 1601.7 kPa	312.72 m/s
280.12 K, 1834.4 kPa	312.91 m/s
290 K, 53.6 kPa	317.2 m/s
290 K, 196.4 kPa	317.3 m/s
290 K, 1191.6 kPa	318.04 m/s
290 K, 2325 kPa	319.08 m/s
290 K, 3477.8 kPa	320.36 m/s
300 K, 30.5 kPa	322.62 m/s
300 K, 183.8 kPa	322.74 m/s
300 K, 308.3 kPa	322.84 m/s
300 K, 1180.9 kPa	323.61 m/s
300 K, 2331.5 kPa	324.81 m/s
300 K, 4657.3 kPa	327.88 m/s
300 K, 5832.9 kPa	329.8 m/s
300 K, 6595.8 kPa	331.21 m/s
300.11 K, 100.3 kPa	322.73 m/s
300.11 K, 244.7 kPa	322.85 m/s
300.11 K, 395.4 kPa	322.98 m/s
300.11 K, 528 kPa	323.11 m/s
300.11 K, 558.1 kPa	323.12 m/s
300.11 K, 701.6 kPa	323.24 m/s
300.11 K, 739.1 kPa	323.3 m/s
300.11 K, 868 kPa	323.39 m/s
300.11 K, 963 kPa	323.5 m/s
300.11 K, 1011.7 kPa	323.53 m/s
300.11 K, 1166.1 kPa	323.69 m/s
300.11 K, 1618 kPa	324.14 m/s
300.11 K, 1836.4 kPa	324.37 m/s
300.12 K, 48.1 kPa	322.69 m/s
300.12 K, 193 kPa	322.81 m/s
300.12 K, 308.1 kPa	322.91 m/s
300.12 K, 445.5 kPa	323.02 m/s and 323.03 m/s
300.12 K, 729.9 kPa	323.27 m/s and 323.28 m/s
300.12 K, 868.1 kPa	323.39 m/s
300.12 K, 868.2 kPa	323.4 m/s and 323.41 m/s
300.12 K, 1378.6 kPa	323.87 m/s and 323.89 m/s
310 K, 104.7 kPa	328.02 m/s
310 K, 198.6 kPa	328.11 m/s
310 K, 329.2 kPa	328.23 m/s
310 K, 463.4 kPa	328.35 m/s
310 K, 2330.1 kPa	330.38 m/s
310 K, 4624.6 kPa	333.59 m/s
310 K, 6595.8 kPa	337.02 m/s
320 K, 102 kPa	333.28 m/s
320 K, 180.5 kPa	333.35 m/s
320 K, 311 kPa	333.48 m/s
320 K, 450.5 kPa	333.63 m/s
320 K, 576.4 kPa	333.77 m/s and 333.79 m/s
320 K, 1053.9 kPa	334.3 m/s and 334.32 m/s
320 K, 1550.8 kPa	334.89 m/s and 334.9 m/s
320 K, 2333.1 kPa	335.85 m/s
320 K, 4482.2 kPa	339 m/s
320 K, 5819.9 kPa	341.24 m/s
325.05 K, 48.1 kPa	335.83 m/s
325.05 K, 192.9 kPa	336 m/s and 335.99 m/s
325.05 K, 314.5 kPa	336.13 m/s
325.05 K, 438.6 kPa	336.27 m/s
325.05 K, 592.7 kPa	336.44 m/s
325.05 K, 736 kPa	336.6 m/s
325.05 K, 870.8 kPa	336.76 m/s
325.05 K, 1376.5 kPa	337.36 m/s
325.05 K, 1376.6 kPa	337.37 m/s
325.05 K, 2721.4 kPa	339.14 m/s
349.87 K, 48.9 kPa	348.43 m/s and 348.44 m/s
349.87 K, 182.8 kPa	348.62 m/s
349.87 K, 182.9 kPa	348.61 m/s
349.87 K, 307.3 kPa	348.77 m/s and 348.78 m/s
349.87 K, 447 kPa	348.95 m/s and 348.97 m/s
349.87 K, 594.5 kPa	349.14 m/s
349.87 K, 726.7 kPa	349.32 m/s and 349.34 m/s
349.87 K, 864.5 kPa	349.5 m/s
349.87 K, 864.6 kPa	349.52 m/s
349.87 K, 1397.7 kPa	350.24 m/s and 350.26 m/s
349.87 K, 2711.2 kPa	352.19 m/s
